Laboratory results as given in patent publication US20230286919A1, “ISOQUINOLINE DERIVATIVES FOR USE IN THERAPY” (Vestlandets Innovasjonsselskap AS, priority 2020, published 2023).

Experiments:
MAPK8 (JNK1) = MAPK8 (JNK1) (Homo sapiens, UniProt P45983); assay: SelectScreen kinase profiling, MAPK8; type: biochemical; details: read-out: Enzyme inhibitory activity IC50
TGFBR1 (ALK5) = TGFBR1 (ALK5) (Homo sapiens, UniProt P36897); assay: SelectScreen kinase profiling, TGFBR1 (ALK5); type: binding; details: cell free, read-out: Enzyme inhibitory activity IC50
Sequence of TGFBR1 (ALK5) (P36897 34-503): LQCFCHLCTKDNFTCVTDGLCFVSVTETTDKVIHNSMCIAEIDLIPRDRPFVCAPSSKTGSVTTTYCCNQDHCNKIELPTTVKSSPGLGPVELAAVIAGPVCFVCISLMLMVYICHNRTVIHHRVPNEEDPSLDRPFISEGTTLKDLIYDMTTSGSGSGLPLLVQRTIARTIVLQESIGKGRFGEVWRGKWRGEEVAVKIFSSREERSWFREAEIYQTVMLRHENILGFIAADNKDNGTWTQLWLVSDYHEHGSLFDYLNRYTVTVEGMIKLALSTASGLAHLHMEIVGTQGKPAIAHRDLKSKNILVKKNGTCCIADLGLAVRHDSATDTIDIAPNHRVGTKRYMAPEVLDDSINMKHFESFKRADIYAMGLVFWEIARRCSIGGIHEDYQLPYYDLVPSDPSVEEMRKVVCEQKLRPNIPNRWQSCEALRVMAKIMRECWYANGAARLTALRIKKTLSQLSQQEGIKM
Method: The in vitro kinase inhibitory assays in the presence of compounds 323-1 and 323-2 were carried out according to the Z′-LYTE™ Screening and LanthaScreen Eu Kinase Binding Assays Experimental Procedures in Invitrogen (ThermoFisher Scientific, Waltham, Mass., USA). For the Z′-LYTE™ Screening profiling for FRAP1 (mTOR), JAK3, and LTK (TYK1), a mixture containing the test compounds in 100% DMSO, 2.4 μL Kinase buffer (50 mM HEPES pH 7.5, 0.01% BRIJ-35, 10 mM MgCl2, 1 mM EGTA), 5 μL 2× Peptide/Kinase Mixture, 2.5 μL 4×ATP Solution were added into black 384-well low volume NBS and bar-coded corning plate (Corning Cat. #4514) and shake the plate for 30 seconds. After incubation at RT for 60 min, 5 μL Development Reagent Solution was added into plate and shake the plate for 30 seconds, followed by Development Reaction incubation at RT for 60 min. Read on fluorescence plate reader and analyze the data. […]
Inhibition by compounds 323-1 and 323-2 of MAP2K4 (MEK4) and TGFBR1 (ALK5) was determined by […]. Inhibition by compounds 323-1 and 323-2 of FRAP1 (mTOR), JAK3, and LTK (TYK1) was determined by […] using the Adapta Universal Kinase Assay (Life Technologies). […]

SRC N1 = SRC N1 (Homo sapiens, UniProt P12931); assay: SelectScreen kinase profiling, SRC N1; type: biochemical; details: read-out: Enzyme inhibitory activity IC50
Sequence of SRC N1 (P12931 1-542 isoform P12931-2): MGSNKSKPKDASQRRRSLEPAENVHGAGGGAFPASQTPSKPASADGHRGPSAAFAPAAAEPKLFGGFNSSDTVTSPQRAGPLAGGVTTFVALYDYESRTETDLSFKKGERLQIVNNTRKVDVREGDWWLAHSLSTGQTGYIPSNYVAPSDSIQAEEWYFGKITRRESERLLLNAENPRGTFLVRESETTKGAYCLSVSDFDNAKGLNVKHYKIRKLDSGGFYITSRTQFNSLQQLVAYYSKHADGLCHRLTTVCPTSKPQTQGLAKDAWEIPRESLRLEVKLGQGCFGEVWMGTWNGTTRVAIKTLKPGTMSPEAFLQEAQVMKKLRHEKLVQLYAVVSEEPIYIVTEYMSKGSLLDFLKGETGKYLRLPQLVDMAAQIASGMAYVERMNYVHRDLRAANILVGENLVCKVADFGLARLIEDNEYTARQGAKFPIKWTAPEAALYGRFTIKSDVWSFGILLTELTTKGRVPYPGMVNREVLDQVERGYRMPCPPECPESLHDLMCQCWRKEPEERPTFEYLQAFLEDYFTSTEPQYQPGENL

EGFR (ErbB1) = EGFR (ErbB1) (Homo sapiens, UniProt P00533); assay: SelectScreen kinase profiling, EGFR; type: biochemical; details: read-out: Enzyme inhibitory activity IC50
LYN A = LYN A (Homo sapiens, UniProt P07948); assay: SelectScreen kinase profiling, LYN A; type: biochemical; details: read-out: Enzyme inhibitory activity IC50
HCK = HCK (Homo sapiens, UniProt P08631); assay: SelectScreen kinase profiling, HCK; type: biochemical; details: read-out: Enzyme inhibitory activity IC50
Sequence of HCK (P08631 whole entry): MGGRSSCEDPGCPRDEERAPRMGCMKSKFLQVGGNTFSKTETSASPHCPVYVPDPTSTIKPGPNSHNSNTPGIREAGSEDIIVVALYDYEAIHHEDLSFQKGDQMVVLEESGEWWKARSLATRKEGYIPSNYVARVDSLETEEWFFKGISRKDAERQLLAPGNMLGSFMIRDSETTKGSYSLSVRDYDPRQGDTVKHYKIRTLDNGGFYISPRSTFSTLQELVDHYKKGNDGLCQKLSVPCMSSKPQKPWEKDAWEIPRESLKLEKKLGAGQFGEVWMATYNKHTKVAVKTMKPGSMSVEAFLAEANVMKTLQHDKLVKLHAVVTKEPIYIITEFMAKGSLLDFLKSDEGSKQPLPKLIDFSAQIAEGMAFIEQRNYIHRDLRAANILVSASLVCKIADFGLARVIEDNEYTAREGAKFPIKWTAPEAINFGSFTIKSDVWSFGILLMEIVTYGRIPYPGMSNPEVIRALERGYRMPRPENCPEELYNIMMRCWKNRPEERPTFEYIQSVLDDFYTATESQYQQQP

TGFBR2 = TGFBR2 (Homo sapiens, UniProt P37173); assay: SelectScreen kinase profiling, TGFBR2; type: biochemical; details: read-out: Enzyme inhibitory activity IC50
MAPK3 (ERK1) = MAPK3 (ERK1) (Homo sapiens, UniProt P27361); assay: SelectScreen kinase profiling, MAPK3; type: biochemical; details: read-out: Enzyme inhibitory activity IC50
SRC = SRC (Homo sapiens, UniProt P12931); assay: SelectScreen kinase profiling, SRC; type: biochemical; details: read-out: Enzyme inhibitory activity IC50
FGFR1 = FGFR1 (Homo sapiens, UniProt P11362); assay: SelectScreen kinase profiling, FGFR1; type: biochemical; details: read-out: Enzyme inhibitory activity IC50
Sequence of FGFR1 (P11362 22-822): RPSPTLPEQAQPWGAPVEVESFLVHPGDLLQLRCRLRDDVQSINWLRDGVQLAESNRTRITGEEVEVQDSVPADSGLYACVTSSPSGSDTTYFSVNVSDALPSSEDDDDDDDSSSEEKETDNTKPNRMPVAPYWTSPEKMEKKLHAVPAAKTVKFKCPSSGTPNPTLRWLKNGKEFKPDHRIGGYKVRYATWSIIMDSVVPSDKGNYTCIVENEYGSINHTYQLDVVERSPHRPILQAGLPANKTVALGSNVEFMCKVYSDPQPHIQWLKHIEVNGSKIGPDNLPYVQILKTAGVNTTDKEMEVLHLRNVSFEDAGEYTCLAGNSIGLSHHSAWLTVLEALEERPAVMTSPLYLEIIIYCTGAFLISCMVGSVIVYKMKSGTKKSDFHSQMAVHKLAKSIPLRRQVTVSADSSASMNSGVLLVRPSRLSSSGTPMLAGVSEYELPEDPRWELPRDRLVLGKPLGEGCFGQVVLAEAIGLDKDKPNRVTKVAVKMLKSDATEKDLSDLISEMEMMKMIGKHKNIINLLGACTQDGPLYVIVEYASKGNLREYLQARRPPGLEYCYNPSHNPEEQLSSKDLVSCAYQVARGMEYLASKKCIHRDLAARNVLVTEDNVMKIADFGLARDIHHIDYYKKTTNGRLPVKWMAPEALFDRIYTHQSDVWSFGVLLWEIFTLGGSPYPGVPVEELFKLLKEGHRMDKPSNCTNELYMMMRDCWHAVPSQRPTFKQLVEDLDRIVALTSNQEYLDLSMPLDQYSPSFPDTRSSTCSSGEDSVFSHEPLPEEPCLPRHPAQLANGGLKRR

KDR (VEGFR2) = KDR (VEGFR2) (Homo sapiens, UniProt P35968); assay: SelectScreen kinase profiling, KDR; type: biochemical; details: read-out: Enzyme inhibitory activity IC50
PRKCD (PKC delta) = PRKCD (PKC delta) (Homo sapiens, UniProt Q05655); assay: SelectScreen kinase profiling, PRKCD; type: biochemical; details: read-out: Enzyme inhibitory activity IC50
FGFR2 = FGFR2 (Homo sapiens, UniProt P21802); assay: SelectScreen kinase profiling, FGFR2; type: biochemical; details: read-out: Enzyme inhibitory activity IC50
FLT1 (VEGFR1) = FLT1 (VEGFR1) (Homo sapiens, UniProt P17948); assay: SelectScreen kinase profiling, FLT1; type: biochemical; details: read-out: Enzyme inhibitory activity IC50
Sequence of FLT1 (VEGFR1) (P17948 27-1338): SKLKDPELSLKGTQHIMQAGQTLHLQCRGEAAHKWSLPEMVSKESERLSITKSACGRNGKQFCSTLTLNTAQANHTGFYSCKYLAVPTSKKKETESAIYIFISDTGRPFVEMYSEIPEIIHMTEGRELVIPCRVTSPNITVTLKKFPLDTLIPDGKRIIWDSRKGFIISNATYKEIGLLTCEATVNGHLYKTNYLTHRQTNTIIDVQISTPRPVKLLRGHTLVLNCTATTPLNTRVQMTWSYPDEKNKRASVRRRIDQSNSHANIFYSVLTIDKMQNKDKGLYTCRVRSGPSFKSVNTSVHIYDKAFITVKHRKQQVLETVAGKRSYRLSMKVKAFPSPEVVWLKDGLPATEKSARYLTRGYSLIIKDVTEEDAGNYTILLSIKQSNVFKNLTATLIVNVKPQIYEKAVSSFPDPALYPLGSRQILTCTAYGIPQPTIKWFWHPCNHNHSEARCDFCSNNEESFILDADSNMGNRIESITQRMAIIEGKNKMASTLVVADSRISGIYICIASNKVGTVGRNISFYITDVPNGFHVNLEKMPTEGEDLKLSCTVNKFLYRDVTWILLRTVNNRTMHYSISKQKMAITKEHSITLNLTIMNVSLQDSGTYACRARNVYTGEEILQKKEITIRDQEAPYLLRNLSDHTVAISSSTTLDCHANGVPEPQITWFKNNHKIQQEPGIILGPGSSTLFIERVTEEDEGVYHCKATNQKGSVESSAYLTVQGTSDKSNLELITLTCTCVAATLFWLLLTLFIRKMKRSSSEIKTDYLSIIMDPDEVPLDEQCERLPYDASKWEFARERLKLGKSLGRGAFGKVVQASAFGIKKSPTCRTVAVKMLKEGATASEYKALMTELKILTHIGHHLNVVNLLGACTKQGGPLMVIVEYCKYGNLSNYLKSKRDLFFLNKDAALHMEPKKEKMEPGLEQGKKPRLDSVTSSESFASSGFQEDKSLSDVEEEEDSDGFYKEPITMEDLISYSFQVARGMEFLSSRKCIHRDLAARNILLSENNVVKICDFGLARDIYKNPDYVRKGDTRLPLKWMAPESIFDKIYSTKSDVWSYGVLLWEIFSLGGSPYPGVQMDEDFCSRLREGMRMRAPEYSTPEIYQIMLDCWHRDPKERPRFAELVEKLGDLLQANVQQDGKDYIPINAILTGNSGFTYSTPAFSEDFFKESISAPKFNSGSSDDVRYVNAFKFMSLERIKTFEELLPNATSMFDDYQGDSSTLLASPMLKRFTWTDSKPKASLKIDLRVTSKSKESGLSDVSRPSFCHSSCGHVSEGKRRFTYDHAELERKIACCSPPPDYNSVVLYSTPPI

ERBB4 (HER4) = ERBB4 (HER4) (Homo sapiens, UniProt Q15303); assay: SelectScreen kinase profiling, ERBB4; type: biochemical; details: read-out: Enzyme inhibitory activity IC50
Sequence of ERBB4 (HER4) (Q15303 26-1308): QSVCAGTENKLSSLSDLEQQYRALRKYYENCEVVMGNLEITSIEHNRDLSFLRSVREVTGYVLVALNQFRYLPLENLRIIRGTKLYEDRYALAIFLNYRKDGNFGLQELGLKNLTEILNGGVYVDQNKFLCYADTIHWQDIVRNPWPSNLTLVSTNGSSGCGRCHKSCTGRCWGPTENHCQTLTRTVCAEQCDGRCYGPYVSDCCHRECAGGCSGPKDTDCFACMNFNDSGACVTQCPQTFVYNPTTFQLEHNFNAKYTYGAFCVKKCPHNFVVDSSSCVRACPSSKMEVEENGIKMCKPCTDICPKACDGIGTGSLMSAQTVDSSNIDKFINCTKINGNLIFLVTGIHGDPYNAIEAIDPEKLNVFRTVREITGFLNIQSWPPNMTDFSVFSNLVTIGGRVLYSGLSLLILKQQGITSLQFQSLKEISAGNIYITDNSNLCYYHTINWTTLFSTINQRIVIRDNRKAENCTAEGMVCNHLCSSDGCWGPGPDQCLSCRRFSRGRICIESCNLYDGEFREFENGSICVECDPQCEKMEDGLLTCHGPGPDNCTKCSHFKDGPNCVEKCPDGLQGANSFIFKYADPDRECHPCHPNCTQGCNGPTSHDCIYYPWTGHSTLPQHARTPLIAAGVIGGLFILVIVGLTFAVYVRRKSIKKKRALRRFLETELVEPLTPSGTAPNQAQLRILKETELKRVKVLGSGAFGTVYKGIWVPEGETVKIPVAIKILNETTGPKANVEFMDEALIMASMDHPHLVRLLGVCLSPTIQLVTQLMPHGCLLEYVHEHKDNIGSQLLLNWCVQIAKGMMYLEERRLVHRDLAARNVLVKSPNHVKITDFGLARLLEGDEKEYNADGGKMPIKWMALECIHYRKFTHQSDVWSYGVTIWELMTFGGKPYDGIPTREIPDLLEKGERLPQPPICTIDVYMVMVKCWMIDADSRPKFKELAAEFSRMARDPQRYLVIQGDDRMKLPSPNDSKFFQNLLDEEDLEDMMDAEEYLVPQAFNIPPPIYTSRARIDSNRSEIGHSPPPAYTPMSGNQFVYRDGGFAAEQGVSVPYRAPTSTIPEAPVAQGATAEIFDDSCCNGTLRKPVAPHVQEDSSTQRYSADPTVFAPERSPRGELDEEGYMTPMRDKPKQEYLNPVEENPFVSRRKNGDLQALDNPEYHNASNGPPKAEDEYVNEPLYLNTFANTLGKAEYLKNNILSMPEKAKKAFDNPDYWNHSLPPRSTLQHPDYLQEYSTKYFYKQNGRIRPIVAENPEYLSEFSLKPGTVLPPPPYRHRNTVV

MAPK10 (JNK3) = MAPK10 (JNK3) (Homo sapiens, UniProt P53779); assay: SelectScreen kinase profiling, MAPK10; type: biochemical; details: read-out: Enzyme inhibitory activity IC50
FGFR3 = FGFR3 (Homo sapiens, UniProt P22607); assay: SelectScreen kinase profiling, FGFR3; type: biochemical; details: read-out: Enzyme inhibitory activity IC50
STAT3 dimerization = target: T1, STAT3 dimerization (Homo sapiens, UniProt P40763); assay: Co-immunoprecipitation of HA-STAT3 and FLAG-STAT3 in 293T cells; type: cell-based; details: 50 μM, 24 hours, compared with S3I-201 (200 μM)
T1 construct: expressed in transfected cells; host or cells: 293T cells
Method: 293T cells were collected in the medium and centrifuged at 800 g x 5 min, then washed with cold PBS twice before adding 500 μl Pierce™ IP Lysis Buffer (Thermofisher Scientific, 87787), containing protease and phosphatase inhibitor cocktail without DTT (Roche, 11836153001), into the cells. Cell lysates were passed several times through a 27^1/2-gauge needle to disrupt the nuclei. 1-2 mg extracts were added with pre-cleaned 50 μL slurry of Pierce™ […] Magnetic Agarose (Thermoscientific, A36797), then supernatant were collect with magnet and immunoprecipitated (IP) at RT on a rotator for 30 min. Beads were boiled at 95° C. for 5 min followed by adding the 100 μL of 1× Non-reducing Sample Buffer (Thermofisher Scientific, 39000) into beads. The supernatant was collected with a magnet and then added 5 μL of 1M DTT (Thermoscientific, P2325) into sample prior to proceeding the immunoblotting.
Nuclear translocation of the STAT3 dimers mediates the STAT3 transcriptional activity.

| SMILES | IC50 (MAPK8 (JNK1)) [µM] | IC50 (TGFBR1 (ALK5)) [µM] | IC50 (SRC N1) [µM] | IC50 (EGFR (ErbB1)) [µM] | IC50 (LYN A) [µM] | IC50 (HCK) [µM] | IC50 (TGFBR2) [µM] | IC50 (MAPK3 (ERK1)) [µM] | IC50 (SRC) [µM] | IC50 (FGFR1) [µM] | IC50 (KDR (VEGFR2)) [µM] | IC50 (PRKCD (PKC delta)) [µM] | IC50 (FGFR2) [µM] | IC50 (FLT1 (VEGFR1)) [µM] | IC50 (ERBB4 (HER4)) [µM] | IC50 (MAPK10 (JNK3)) [µM] | IC50 (FGFR3) [µM] | Dimerization of STAT3 (HA-STAT3/FLAG-STAT3) (STAT3 dimerization) |
| --- | --- | --- | --- | --- | --- | --- | --- | --- | --- | --- | --- | --- | --- | --- | --- | --- | --- | --- |
| C[C@@H]1CCC(c2cc3c4c(cncc4c2)[C@H](C)C3)=C1C=O [323-1, (15R,2R)-Delavatine A] | > 20 | 7.95 | > 20 | > 20 | > 20 | > 20 | > 20 | > 20 | > 20 | > 20 | > 20 | > 20 | > 20 | > 20 | > 20 | > 20 | > 20 | – |
| C[C@@H]1CCC(c2cc3c4c(cncc4c2)[C@@H](C)C3)=C1C=O [323-2, (15S,2R)-Delavatine A] | > 20 | 9.25 | > 20 | > 20 | > 20 | > 20 | > 20 | > 20 | > 20 | > 20 | > 20 | > 20 | > 20 | > 20 | > 20 | > 20 | > 20 | could disrupt the dimerization of STAT3 |
